Entries after “also recorded” stand apart in the source; their conditions may differ.
What was measured:
mdx mice [1] = test: Migration of DiI-labeled tendon fibroblasts injected into tibialis anterior of mdx mice; format: in vivo, mouse; conditions: mdx mice pre-treated 1 mg/Kg, tendon fibroblasts injected one week after treatment, analysed after one month, vs vehicle
Protocol: FIG. 7. Andrographolide increases cell migration through fibrosis inhibition. A) Migration of DiI-labeled tendon fibroblast cells after injection into the tibialis anterior of 7-month-old mdx mice (3 months old mdx mice exercised for four months). […] B) Quantitative analysis of the spreading DiI-labeled tendon fibroblast cells was calculated by counting DiI-labeled cells in 200 μm×200 μm squares from three non-serial transverse sections for three mice per group.
3 month old mdx mice were exercised for 4 months and treated with 1 mg/Kg andrographolide or Vehicle. One week after the treatment, mice were anesthetized with an intramuscular injection of physiologic saline (10 ml kg^−1) containing ketamine (5 mg ml^−1) and xylazine (1 mg ml^−1) and then injected with approximately 5×10^5 tendon fibroblasts into the tibialis anterior muscle via a 0.20-mm diameter needle inserted along the cranio-caudal axis of the muscle as previously described (Gargioli et al., 2008). Fibroblasts were previously labeled with 2 mMDiI according to the protocol supplied by the manufacturer (Molecular Probes). One month after the injection, mice were sacrificed for morphological analyses.

CTGF = CTGF expression induced by TGF-β1 in C2C12 cells, northern blot; format: cell-based, mouse; conditions: C2C12, 10 ng/ml TGF-β1, 50 μM andrographolide, 6 hrs
Description: FIG. 1. […] (Vial et al., 2008).

mdx mice [2] = test: Treadmill running test (step backs) in mdx mice; format: in vivo, mouse; conditions: treated mdx mice, treadmill at 15 m/min
Protocol: (§1) FIG. 6. Andrographolide increased skeletal muscle strength and exercise performance in mdx mice. 3 months old Wild Type (WT) and mdx mice were subjected to an exercise protocol for 3 months to augment the extent of muscle fibrosis. Along this period one group was treated with 1 mg/kg andrographolide or vehicle (i.p. injections 3 time per week, 6 animal per group). A) tibialis anterior muscles from wild-type (WT), Vehicle-treated mdx and andrographolide-treated mdx mice were isolated to evaluate isometric specific force (mN/mm2) at different stimulation frequencies (pulses per second, pps). B) Bar graph showing tetanic specific force. Values are represented as percentage of specific isometric force generated by Wild type muscle (*, P<0.05 relative to WT mice; #, P<0.05 relative to Vehicle-treated mdx mice). C) Bar graph showing twitch force (*, P<0.05 relative to WT mice; #, P<0.05 relative to Vehicle-treated mdx mice). D) Mice were subjected to an exercise challenge into the treadmill at 15 meters/min for 5 minutes and the number of stebacks was counted (*, P<0.05 relative to WT mice; #, P<0.05 relative to Vehicle-treated mdx mice).
Mice were subjected to a running test during […] at 15 m/min in a treadmill. The number of times that mice were retarded (step backs) to the first ⅓ of the moving platform was counted (Cabello-Verrugio et al., 2012).

mdx mice [3] = test: Contractile properties (isometric force) of isolated tibialis anterior muscle of mdx mice; format: in vivo, mouse; conditions: isolated tibialis anterior of treated mdx mice, vs vehicle-treated mdx
Protocol: as §1
(§2) Control or mdx (12 weeks old) male mice of C57BL/10 ScSn strain were studied. The animals were kept at room temperature with a […] night-day cycle and fed with pellets and water ad libitum. Experimental exercise was performed for running the mice in a treadmill for three times per week, 30 minutes each time at 12 m/min during 3 or 4 months (De Luca et al., 2005; De Luca et al., 2003). […]
The isometric force of isolated muscles were measured as described previously (Cabello-Verrugio et al., 2012). Briefly, optimum muscle length (Lo) and stimulation voltage were determined from micromanipulation of muscle length to produce maximum isometric twitch force. Maximum isometric tetanic force (Po) was determined from the plateau of the frequency-force relationship after successive stimulations at 1 to 200 Hz for 450 ms, with 2-minute rests between stimuli. […]

mdx mice [4] = test: Hematoxylin and eosin histology of tibialis anterior muscle of mdx mice; format: in vivo, mouse; conditions: exercised mdx mice, 1 mg/kg i.p. 3 times per week for 3 months, vs vehicle
Protocol: (§3) FIG. 4. Andrographolide reduced skeletal muscle damage in mdx mice. To augment the extent of muscle fibrosis, 3 months old mdx mice were subjected to an exercise protocol for 3 months. Along this period one group was treated with 1 mg/kg andrographolide or vehicle (i.p. injections 3 time per week, 6 animal per group). […] B) Evans blue dye uptake in tibialis anterior muscle fibers from wild-type (WT), Vehicle-treated mdx and andrographolide-treated mdx mice. Nuclei were labeled with Hoechst. Mice were injected i.p. with 1% Evans blue dye 24 hours before muscle fixation. Bar corresponds to 200 μm. […] Values are expressed as mean±SD of three independent experiments, using eight mice for each experimental condition. (*, P<0.05 relative to WT mice; #, P<0.05 relative to Vehicle-treated mdx mice).
as §2
Architecture and histology were detected by hematoxylin-eosin (H&E) stain in transverse sections of muscle (Morales et al., 2011).

mdx mice [5] = test: Evans blue dye uptake in tibialis anterior muscle fibers of mdx mice; format: in vivo, mouse; conditions: exercised mdx mice, 1 mg/kg i.p. 3 times per week for 3 months
Protocol: as §3, §2
Animals were injected with Evans Blue dye (1% in PBS) and allowed to stay for 24 hours. […] The percentage of Evans blue dye positive fibers was manually counted in a blinded manner (Straub et al., 1997).

C=C1CC[C@@H]2[C@](C)(CO)[C@H](O)CC[C@@]2(C)[C@@H]1C/C=C1/C(=O)OC[C@H]1O [andrographolide]
DiI-labeled cell distribution in muscle (mdx mice [1]): distributed more homogenously; also recorded: more homogenous | induction of CTGF expression in response to TGF-β1 (CTGF): reduced | number of stepbacks at the treadmill (mdx mice [2]): decreased | generation of isometric force (mdx mice [3]; frequencies between 50 and 100 Hz): significant increase | tetanic force (mdx mice [3]): significant increase | twitch force (mdx mice [3]): significant increase | damaged areas in muscle, hematoxylin and eosin staining (mdx mice [4]): striking smaller muscle damaged areas; also recorded: prevented the increase of damaged areas | Evans blue dye uptake in muscle fibers (mdx mice [5]): lower Evans blue dye uptake

— US20140271573A1, “PHARMACO-CELLULAR THERAPEUTIC METHOD FOR THE TREATMENT OF MUSCULAR DYSTROPHIES” (PONTIFICIA UNIVERSIDAD CATÓLICA DE CHILE, priority 2013, published 2014)
